Measured values from article PMC5557916, “A new method to investigate the catalytic mechanism of YhdE pyrophosphatase by using a pyrophosphate fluorescence probe” (Scientific Reports, 2017).

B1: YhdE (Escherichia coli K-12; E33A) (protein)
chain: MTSLYLASGSPRRQELLAQLGVTFERIVTGIEAQRQPQESAQQYVVRLAREKARAGVAQTAKDLPVLGADTIVILNGEVLEKPRDAEHAAQMLRKLSGQTHQVMTAVALADSQHILDCLVVTDVTFRTLTDEDIAGYVASDEPLDKAGAYGIQGLGGCFVRKINGSYHAVVGLPLVETYELLSNFNALREKRDKHDG
notes: recombinant, cloned in vector pFO4, expressed in E. coli BL21(DE3); PDB entries are of the E33A mutant

Key:
[1] = biological target: T1, YhdE (Escherichia coli, UniProt P25536); assay: fluorescence PPi sensor (4-isoACBA-Zn(II)), real-time; assay type: biochemical; details: 20 mM HEPES pH 7.0, 0.4 mM Zn2+, 0.1 mM 4-isoACBA, 298 K; 75 nM enzyme
T1 construct: recombinant, cloned in vector pFO4, expressed in E. coli BL21(DE3); PDB entries are of the E33A mutant

[2] = substrate: Cc1cn([C@H]2C[C@H](O)[C@@H](COP(=O)(O)OP(=O)(O)OP(=O)(O)O)O2)c(=O)[nH]c1=O; assay: as above; assay type: biochemical, Escherichia coli; details: 20 mM HEPES pH 7.0, 0.4 mM Zn2+, 0.1 mM 4-isoACBA, 298 K, 7.5 μM enzyme, 25.0 °C

Row | Molecule | apparent Km [1] | Km [2]
1 | Cc1cn([C@H]2C[C@H](O)[C@@H](COP(=O)(O)OP(=O)(O)OP(=O)(O)O)O2)c(=O)[nH]c1=O [dTTP] | somewhat surprisingly, is similar to that of the wild-type YhdE | 
2 | B1 |  | 75 µM
